{
  "source": "paper PMC11678869",
  "about": "“Functional Role of Odorant-Binding Proteins in Response to Sex Pheromone Component Z8-14:Ac in Grapholita molesta (Busck)” (Insects, 2024)",
  "key": {"rGmolGOBP1": {"target": "rGmolGOBP1 (Grapholita molesta, UniProt H9XTU5)", "sequence (H9XTU5 entry or part of it)": "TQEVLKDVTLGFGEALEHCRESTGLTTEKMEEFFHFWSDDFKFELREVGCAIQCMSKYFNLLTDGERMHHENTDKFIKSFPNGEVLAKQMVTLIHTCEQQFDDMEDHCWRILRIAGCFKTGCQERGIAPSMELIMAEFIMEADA", "experiment": "Fluorescence competitive binding assay with 1-NPN probe", "details": "for Ki: calculated from IC50 and Kd of 1-NPN", "description": "(§1) Previous researchers have successfully expressed rGmolPBP1, rGmolPBP2, rGmolPBP3, rGmolGOBP1, and rGmolGOBP2 proteins using prokaryotic expression systems. In this article, the DNA sequences of these five GmolPBPs and GmolGOBPs, with the signal peptides removed and restriction sites on both ends, were inserted into the expression vector pET28a(+) linearized with the same restriction enzyme. These vectors were then transformed into Escherichia coli BL21(DE3) and induced by isopropyl-β-d-thiogalactoside (IPTG). Since all five recombinant proteins were expressed in inclusion bodies, they were denatured using 8 M urea and then renatured using a cysteine/cystine REDOX system. The reduced recombinant proteins were purified using an Ni-NTA His Bind Resin column (7Sea Pharmatech Co., Ltd., Shanghai, China). Non-target proteins were washed off with washing buffer (20 mM Tris-HCl (pH 7.4), 20 mM imidazole, 1 mM PMSF, and 250 mM NaCl), and then the target proteins were eluted with elution buffer (20 mM Tris-HCl (pH 7.4), 1 mM PMSF, and 250 mM NaCl) with an increasing concentration of imidazole (50, 100, and 200 mM). Five milliliters of eluents with high target protein content and low levels of contaminants were collected and placed in dialysis tubing (Coolaber, Beijing, China) with a molecular weight cut-off of 3.5 kDa to remove NaCl and imidazole. The purified soluble proteins were stored at −80 °C before use.\n(§2) The binding affinities of three rGmolPBPs and two rGmolGOBPs for Z8-14:Ac were determined using an F-2700 fluorescence spectrophotometer (Hitachi, Tokyo, Japan). First, we measured the dissociation constants (Kd) of the rGmolPBPs (or rGmolGOBPs) binding to 1−NPN. Each protein was diluted to 2 μM with 20 mM Tris-HCl buffer (pH 7.4); then, 2 mL of the protein solution was transferred to a quartz cuvette and titrated with 1 mM 1−NPN to a final concentration of 1–18 μM. As the doses of 1−NPN were increased, the increasing amplitude of the fluorescence intensity decreased, and finally, the binding of the protein to 1−NPN reached saturation. The Kd values were calculated using the nonlinear regression method and the Scatchard equation. Second, we measured the inhibitory constant (Ki) of Z8-14:Ac’s competitive binding with each rGmolPBP (or rGmolGOBP) from the protein/1−NPN complex. The initial fluorescence intensity values were measured after a 2 min reaction in 2 mL solution of 20 mM Tris-HCl (pH 7.4) containing 2 µM rGmolPBP (or rGmolGOBP) protein and 2 µM 1−NPN. Then, the solution was titrated with aliquots of 1 mM Z8-14:Ac to obtain final concentrations in the range of 1–14 µM, and the fluorescence intensity value of each reaction was recorded. The Ki values were calculated using the following equation: Ki = [IC50]/(1 + [1 − NPN]/Kd) where IC50 is the concentration of Z8-14:Ac when half of the initial fluorescence intensity value of the rGmolPBP (or GmolGOBP)/1−NPN complex is replaced, [1 − NPN] represents the concentration of free 1−NPN, and Kd is the dissociation constant of the rGmolPBP (or GmolGOBP)/1−NPN complex."}, "rGmolGOBP2": {"target": "rGmolGOBP2 (Grapholita molesta, UniProt H9XTU6)", "sequence (H9XTU6 entry or part of it)": "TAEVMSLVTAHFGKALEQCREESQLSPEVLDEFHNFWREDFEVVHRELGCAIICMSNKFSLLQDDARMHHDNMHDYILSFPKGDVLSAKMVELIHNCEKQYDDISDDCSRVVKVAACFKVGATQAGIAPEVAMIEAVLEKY", "experiment": "Fluorescence competitive binding assay with 1-NPN probe", "description": "as §1, §2"}, "rGmolPBP1": {"target": "rGmolPBP1 (Grapholita molesta, UniProt A0A2R4SBD6)", "sequence (A0A2R4SBD6 entry or part of it)": "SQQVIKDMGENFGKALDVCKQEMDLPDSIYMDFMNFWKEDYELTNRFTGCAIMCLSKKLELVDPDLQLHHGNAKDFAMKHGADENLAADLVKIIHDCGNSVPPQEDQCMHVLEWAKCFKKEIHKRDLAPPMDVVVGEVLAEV", "experiment": "Fluorescence competitive binding assay with 1-NPN probe", "description": "as §1, §2"}, "rGmolPBP2 (wild-type)": {"target": "rGmolPBP2 (wild-type) (Grapholita molesta, UniProt A0A059VC28)", "sequence (A0A059VC28 entry or part of it)": "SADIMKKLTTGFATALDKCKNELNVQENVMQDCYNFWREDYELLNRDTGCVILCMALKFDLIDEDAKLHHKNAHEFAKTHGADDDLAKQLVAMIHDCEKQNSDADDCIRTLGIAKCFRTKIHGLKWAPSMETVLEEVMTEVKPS", "experiment": "Fluorescence competitive binding assay with 1-NPN probe", "description": "as §1, §2"}, "rGmolPBP3": {"target": "rGmolPBP3 (Grapholita molesta, UniProt A0A059VBP3)", "sequence (A0A059VBP3 entry or part of it)": "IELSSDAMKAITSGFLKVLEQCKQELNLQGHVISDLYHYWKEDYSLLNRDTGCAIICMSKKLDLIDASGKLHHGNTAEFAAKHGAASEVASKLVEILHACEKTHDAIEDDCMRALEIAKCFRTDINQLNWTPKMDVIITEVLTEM", "experiment": "Fluorescence competitive binding assay with 1-NPN probe", "description": "as §1, §2"}, "GmolPBP2 mutant F12A": {"target": "GmolPBP2 mutant F12A (Grapholita molesta, UniProt A0A059VC28, F37A)", "sequence (A0A059VC28 entry or part of it F37A)": "as the sequence (A0A059VC28 entry or part of it) above, with F12A counted along it", "experiment": "Fluorescence competitive binding assay, GmolPBP2 mutant", "protocol": "as §2\n(§3) Five amino acids—Phe12, Leu68, Ile94, Arg109, and Ile113—were identified as having lower binding free energies for GmolPBP2 interaction with Z8-14:Ac. To assess their role in binding, these residues were individually mutated to alanine using site-directed mutagenesis. Primers for mutagenesis were designed following the protocols recommended by the Fast Mutagenesis System (TransGen Biotech, Beijing, China) (Table S1). These mutations were introduced into the pET-28a(+)–GmolPBP2 plasmid using a Fast Mutagenesis System kit ([…]) and site-directed mutagenesis primers generating the mutants F12A, L68A, I94A, R109A, and I113A, respectively. Each plasmid was verified by DNA sequencing to confirm the presence of the desired mutation. Expression and purification of the mutated proteins followed the same protocols used for the wild-type GmolPBP2. The binding affinities of the five mutants for Z8-14:Ac were determined via fluorescence competitive binding assays. An increase in Ki values for the mutants relative to the wild-type GmolPBP2 would indicate that the corresponding amino acid residues may be crucial for binding to Z8-14:Ac."}, "GmolPBP2 mutant I113A": {"target": "GmolPBP2 mutant I113A (Grapholita molesta, UniProt A0A059VC28, I138A)", "sequence (A0A059VC28 entry or part of it I138A)": "as the sequence (A0A059VC28 entry or part of it) above, with I113A counted along it", "experiment": "Fluorescence competitive binding assay, GmolPBP2 mutant", "protocol": "as §2, §3"}, "GmolPBP2 mutant I94A": {"target": "GmolPBP2 mutant I94A (Grapholita molesta, UniProt A0A059VC28, I119A)", "sequence (A0A059VC28 entry or part of it I119A)": "as the sequence (A0A059VC28 entry or part of it) above, with I94A counted along it", "experiment": "Fluorescence competitive binding assay, GmolPBP2 mutant", "protocol": "as §2, §3"}, "GmolPBP2 mutant L68A": {"target": "GmolPBP2 mutant L68A (Grapholita molesta, UniProt A0A059VC28, L93A)", "sequence (A0A059VC28 entry or part of it L93A)": "as the sequence (A0A059VC28 entry or part of it) above, with L68A counted along it", "experiment": "Fluorescence competitive binding assay, GmolPBP2 mutant", "protocol": "as §2, §3"}, "GmolPBP2 mutant R109A": {"target": "GmolPBP2 mutant R109A (Grapholita molesta, UniProt A0A059VC28, R134A)", "sequence (A0A059VC28 entry or part of it R134A)": "as the sequence (A0A059VC28 entry or part of it) above, with R109A counted along it", "experiment": "Fluorescence competitive binding assay, GmolPBP2 mutant", "protocol": "as §2, §3"}, "[1]": {"details": "2 μM protein, 2 μM 1-NPN, pH 7.4, read-out: IC50 (displacement of 1-NPN)"}, "[2]": {"details": "calculated from IC50 and Kd of 1-NPN"}},
  "note": "Like-named read-outs stand apart in the source and are kept apart here.",
  "data": [
    {"smiles": "CCCCC/C=C\\CCCCCCCOC(C)=O", "note": "[Z8-14:Ac, (Z)-8-tetradecenyl acetate]", "values": [
      {"measurement": "IC50", "setting": "rGmolGOBP1; [1]", "value": "> 14", "unit": "µM"},
      {"measurement": "Ki", "setting": "rGmolGOBP1", "value": "could not be calculated"},
      {"measurement": "Ki", "setting": "rGmolGOBP1; read-out: Ki", "value": "> 14", "unit": "µM"},
      {"measurement": "IC50", "setting": "rGmolGOBP2; [1]", "value": "3.53 ± 0.22", "unit": "µM"},
      {"measurement": "Ki", "setting": "rGmolGOBP2; [2]", "value": "2860 ± 180", "unit": "nM"},
      {"measurement": "IC50", "setting": "rGmolPBP1; [1]", "value": "2930 ± 70", "unit": "nM"},
      {"measurement": "Ki", "setting": "rGmolPBP1; [2]", "value": "1660 ± 40", "unit": "nM"},
      {"measurement": "IC50", "setting": "rGmolPBP2 (wild-type); [1]", "value": "1260 ± 40", "unit": "nM"},
      {"measurement": "Ki", "setting": "rGmolPBP2 (wild-type); [2]", "value": "660 ± 20", "unit": "nM"},
      {"measurement": "IC50", "setting": "rGmolPBP3; [1]", "value": "2780 ± 320", "unit": "nM"},
      {"measurement": "Ki", "setting": "rGmolPBP3; [2]", "value": "2560 ± 270", "unit": "nM"},
      {"measurement": "IC50", "setting": "GmolPBP2 mutant F12A", "value": "> 14", "unit": "µM"},
      {"measurement": "Ki", "setting": "GmolPBP2 mutant F12A", "value": "> 14", "unit": "µM"},
      {"measurement": "binding affinity relative to wild-type GmolPBP2", "setting": "GmolPBP2 mutant F12A; mutant F12A", "value": "lost its affinity"},
      {"measurement": "IC50", "setting": "GmolPBP2 mutant I113A", "value": "980 ± 38", "unit": "nM"},
      {"measurement": "Ki", "setting": "GmolPBP2 mutant I113A", "value": "520 ± 20", "unit": "nM"},
      {"measurement": "binding affinity relative to wild-type GmolPBP2", "setting": "GmolPBP2 mutant I113A; mutant I113A", "value": "binding affinities comparable to the wild-type"},
      {"measurement": "IC50", "setting": "GmolPBP2 mutant I94A", "value": "1082 ± 8", "unit": "nM"},
      {"measurement": "Ki", "setting": "GmolPBP2 mutant I94A", "value": "564 ± 4", "unit": "nM"},
      {"measurement": "binding affinity relative to wild-type GmolPBP2", "setting": "GmolPBP2 mutant I94A; mutant I94A", "value": "binding affinities comparable to the wild-type"},
      {"measurement": "IC50", "setting": "GmolPBP2 mutant L68A", "value": "1130 ± 26", "unit": "nM"},
      {"measurement": "Ki", "setting": "GmolPBP2 mutant L68A", "value": "589 ± 7", "unit": "nM"},
      {"measurement": "binding affinity relative to wild-type GmolPBP2", "setting": "GmolPBP2 mutant L68A; mutant L68A", "value": "binding affinities comparable to the wild-type"},
      {"measurement": "IC50", "setting": "GmolPBP2 mutant R109A", "value": "1260 ± 29", "unit": "nM"},
      {"measurement": "Ki", "setting": "GmolPBP2 mutant R109A", "value": "655 ± 15", "unit": "nM"},
      {"measurement": "binding affinity relative to wild-type GmolPBP2", "setting": "GmolPBP2 mutant R109A; mutant R109A", "value": "did not significantly affect the binding affinity"}
    ]}
  ]
}
